Measured values published in patent US12077503B2, “Substituted cyclic amides and their use as herbicides” (FMC CORPORATION, priority 2015, dated 2024).

What was measured:
Format in all cases: in vivo
rice (Oryra sativa) = assay: Test B flooded paddy test; settings: Flood, 250 g ai/ha; 0 to 100 scale where 0 is no effect and 100 is complete control; 13 to 15 d
Outline: (§1)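 Percent control, visually estimated after 13–15 d in the greenhouse on a 0–100 basis, compares treated pots with untreated ones; compound was put into paddy water 3 cm above the soil when plants had two leaves.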

[1] = tested on: sedge, umbrella (small-flower umbrella sedge, Cyperus difformis); assay: Test B flooded paddy test; settings: Flood, 250 g ai/ha; 0 to 100 scale where 0 is no effect and 100 is complete control; 13 to 15 d
Outline: as §1

[2] = tested on: ducksalad (Heteranthera limosa); assay: Test B flooded paddy test; settings: Flood, 250 g ai/ha; 0 to 100 scale where 0 is no effect and 100 is complete control; 13 to 15 d
Outline: as §1

[3] = tested on: barnyardgrass (Echinochloa crus-galli); assay: Test B flooded paddy test; settings: Flood, 250 g ai/ha; 0 to 100 scale where 0 is no effect and 100 is complete control; 13 to 15 d
Outline: as §1

[4] = tested on: ragweed (common ragweed, Ambrosia elatior); assay: Test A preemergence; settings: for Plant response rating, Ragweed: 125 g ai/ha; for Ragweed plant response rating (0 to 100 scale, 0 is no effect, 100 is complete control): 500 g ai/ha, visual injury approx. 10 d
Outline: (§2)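 Visual injury, scored on a 0–100 scale relative to untreated controls, was recorded about 10 d after application. Treatments were a preemergence soil spray over planted seeds or a postemergence spray on plants at the one- to two-leaf stage, 2 to 10 cm tall, all in loam soil–sand blend in the greenhouse.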

[5] = tested on: pigweed (Amaranthus retroflexus); assay: Test A preemergence; settings: for Plant response rating, Pigweed: 125 g ai/ha; for Pigweed plant response rating (0 to 100 scale, 0 is no effect, 100 is complete control): 500 g ai/ha, visual injury approx. 10 d
[6] = tested on: giant foxtail (Setaria faberii); assay: Test A preemergence; settings: for Plant response rating, Foxtail, Giant: 125 g ai/ha, preemergence, 0 to 100 scale (0 no effect, 100 complete control); for Foxtail, Giant plant response rating (0 to 100 scale, 0 is no effect, 100 is complete control): Preemergence, 500 g ai/ha, visual injury approx. 10 d
Outline: as §2

[7] = tested on: ryegrass, Italian (Italian ryegrass, Lolium multiflorum); assay: Test A preemergence; settings: for Plant response rating, Ryegrass, Italian: 125 g ai/ha; for Ryegrass, Italian plant response rating (0 to 100 scale, 0 is no effect, 100 is complete control): 500 g ai/ha, visual injury approx. 10 d
Outline: as §2

[8] = tested on: barnyardgrass (Echinochloa crus-galli); assay: Test A preemergence; settings: for Plant response rating, Barnyardgrass: 125 g ai/ha, preemergence, 0 to 100 scale (0 no effect, 100 complete control); for Barnyardgrass plant response rating (0 to 100 scale, 0 is no effect, 100 is complete control): Preemergence, 500 g ai/ha, visual injury approx. 10 d
Outline: as §2

Kochia (Kochia scoparia) [9] = assay: Test A preemergence; settings: for Plant response rating, Kochia: 125 g ai/ha, preemergence, 0 to 100 scale (0 no effect, 100 complete control); for Kochia plant response rating (0 to 100 scale, 0 is no effect, 100 is complete control): Preemergence, 500 g ai/ha, visual injury approx. 10 d
Outline: as §2

corn (Zea mays) = assay: Test A postemergence; settings: postemergence; for Corn plant response rating: 125 g ai/ha, visual injury rating on 0 to 100 scale (0 no effect, 100 complete control), approx. 10 d; for Plant response rating, Corn: 500 g ai/ha, 0 to 100 scale, 0 no effect, 100 complete control
Outline: as §2

[10] = tested on: Galium (catchweed bedstraw, Galium aparine); assay: Test A postemergence; settings: for Galium plant response rating: 125 g ai/ha, visual injury rating on 0 to 100 scale (0 no effect, 100 complete control), approx. 10 d; for Plant response rating, Galium: 500 g ai/ha
Outline: as §2

[11] = tested on: ragweed (common ragweed, Ambrosia elatior); assay: Test A postemergence; settings: for Ragweed plant response rating: 125 g ai/ha, visual injury rating on 0 to 100 scale (0 no effect, 100 complete control), approx. 10 d; for Plant response rating, Ragweed: 500 g ai/ha
Outline: as §2

[12] = tested on: pigweed (Amaranthus retroflexus); assay: Test A postemergence; settings: for Pigweed plant response rating: 125 g ai/ha, visual injury rating on 0 to 100 scale (0 no effect, 100 complete control), approx. 10 d; for Plant response rating, Pigweed: 500 g ai/ha
Outline: as §2

[13] = tested on: giant foxtail (Setaria faberii); assay: Test A postemergence; settings: for Foxtail, Giant plant response rating: 125 g ai/ha, visual injury rating on 0 to 100 scale (0 no effect, 100 complete control), approx. 10 d; for Plant response rating, Foxtail, Giant: 500 g ai/ha
Outline: as §2

[14] = tested on: blackgrass (Alopecurus myosuroides); assay: Test A postemergence; settings: postemergence; for Blackgrass plant response rating: 125 g ai/ha, visual injury rating on 0 to 100 scale (0 no effect, 100 complete control), approx. 10 d; for Plant response rating, Blackgrass: 500 g ai/ha, 0 to 100 scale, 0 no effect, 100 complete control
Outline: as §2

[15] = tested on: wheat (Triticum aestivum); assay: Test A postemergence; settings: for Wheat plant response rating: 125 g ai/ha, visual injury rating on 0 to 100 scale (0 no effect, 100 complete control), approx. 10 d; for Plant response rating, Wheat: 500 g ai/ha
Outline: as §2

[16] = tested on: ryegrass, Italian (Italian ryegrass, Lolium multiflorum); assay: Test A postemergence; settings: for Ryegrass, Italian plant response rating: 125 g ai/ha, visual injury rating on 0 to 100 scale (0 no effect, 100 complete control), approx. 10 d; for Plant response rating, Ryegrass, Italian: 500 g ai/ha
Outline: as §2

[17] = tested on: barnyardgrass (Echinochloa crus-galli); assay: Test A postemergence; settings: postemergence; for Barnyardgrass plant response rating: 125 g ai/ha, visual injury rating on 0 to 100 scale (0 no effect, 100 complete control), approx. 10 d; for Plant response rating, Barnyardgrass: 500 g ai/ha, 0 to 100 scale, 0 no effect, 100 complete control
Outline: as §2

Kochia (Kochia scoparia) [18] = assay: Test A postemergence; settings: for Kochia plant response rating: 125 g ai/ha, visual injury rating on 0 to 100 scale (0 no effect, 100 complete control), approx. 10 d; for Plant response rating, Kochia: 500 g ai/ha
Outline: as §2

[19] = preemergence, 0 to 100 scale (0 no effect, 100 complete control)
[20] = postemergence, 0 to 100 scale, 0 no effect, 100 complete control
[21] = Preemergence, visual injury after approximately 10 d, 0 to 100 scale where 0 is no effect and 100 is complete control
[22] = Postemergence, 0 to 100 scale where 0 is no effect and 100 is complete control

Compound	Plant response rating, Rice (rice (Oryra sativa))	Plant response rating, Sedge, Umbrella [1]	Plant response rating, Ducksalad [2]	Plant response rating, Barnyardgrass [3]	Ragweed plant response rating (0 to 100 scale, 0 is no effect, 100 is complete control) ([4]; Preemergence)	Pigweed plant response rating (0 to 100 scale, 0 is no effect, 100 is complete control) ([5]; Preemergence)	Plant response rating, Foxtail, Giant [6]	Foxtail, Giant plant response rating (0 to 100 scale, 0 is no effect, 100 is complete control) [6]	Ryegrass, Italian plant response rating (0 to 100 scale, 0 is no effect, 100 is complete control) ([7]; Preemergence)	Plant response rating, Barnyardgrass [8]	Barnyardgrass plant response rating (0 to 100 scale, 0 is no effect, 100 is complete control) [8]	Plant response rating, Kochia (Kochia (Kochia scoparia) [9])	Kochia plant response rating (0 to 100 scale, 0 is no effect, 100 is complete control) (Kochia (Kochia scoparia) [9])	Corn plant response rating (corn (Zea mays))	Plant response rating, Corn (corn (Zea mays))	Galium plant response rating ([10]; postemergence)	Ragweed plant response rating ([11]; postemergence)	Pigweed plant response rating ([12]; postemergence)	Foxtail, Giant plant response rating ([13]; postemergence)	Blackgrass plant response rating [14]	also measured
O=C1NCC(c2ccc(Br)cc2)C1C(=O)Nc1ccccc1Cl (stereo not drawn) [Compound 453]	0	0	95	30	20	30	90	90	0	80	90	0	30	0	40	30	0	0	80	0	Plant response rating, Ragweed [4, 19]: 0; Plant response rating, Pigweed [5, 19]: 20; Plant response rating, Ryegrass, Italian [7, 19]: 0; Plant response rating, Galium [10, 20]: 40; Plant response rating, Ragweed [11, 20]: 0; Plant response rating, Pigweed [12, 20]: 0; Plant response rating, Foxtail, Giant [13, 20]: 80; Plant response rating, Blackgrass [14]: 30; Wheat plant response rating ([15]; postemergence): 0; Plant response rating, Wheat [15, 20]: 30; Ryegrass, Italian plant response rating ([16]; postemergence): 0; Plant response rating, Ryegrass, Italian [16, 20]: 0; Barnyardgrass plant response rating [17]: 80; Plant response rating, Barnyardgrass [17]: 80; Kochia plant response rating (Kochia (Kochia scoparia) [18]; postemergence): 20; Plant response rating, Kochia (Kochia (Kochia scoparia) [18]; [20]): 30
O=C(Nc1cccc(F)c1F)C1C(=O)N(c2ccccc2)CC1c1cccc(C(F)(F)F)c1 (stereo not drawn) [Compound 457]	0	0	0	0	0	0	0	0	0	0	0	0	0	0	0	0	0	0	0	0	Plant response rating, Ragweed [4, 19]: 0; Plant response rating, Pigweed [5, 19]: 0; Plant response rating, Ryegrass, Italian [7, 19]: 0; Plant response rating, Galium [10, 20]: 0; Plant response rating, Ragweed [11, 20]: 0; Plant response rating, Pigweed [12, 20]: 0; Plant response rating, Foxtail, Giant [13, 20]: 0; Plant response rating, Blackgrass [14]: 0; Wheat plant response rating ([15]; postemergence): 0; Plant response rating, Wheat [15, 20]: 0; Ryegrass, Italian plant response rating ([16]; postemergence): 0; Plant response rating, Ryegrass, Italian [16, 20]: 0; Barnyardgrass plant response rating [17]: 0; Plant response rating, Barnyardgrass [17]: 0; Kochia plant response rating (Kochia (Kochia scoparia) [18]; postemergence): 0; Plant response rating, Kochia (Kochia (Kochia scoparia) [18]; [20]): 0
Cc1c(F)ccc(NC(=O)C2C(=O)NCC2c2cccc(OC(F)(F)C(F)F)c2)c1F (stereo not drawn) [Compound 460]	0	0	100	40	20	30	90	90	60	80	80	0	40	20	40	50	0	20	90	20	Plant response rating, Ragweed [4, 19]: 0; Plant response rating, Pigweed [5, 19]: 30; Plant response rating, Ryegrass, Italian [7, 19]: 40; Plant response rating, Galium [10, 20]: 60; Plant response rating, Ragweed [11, 20]: 0; Plant response rating, Pigweed [12, 20]: 40; Plant response rating, Foxtail, Giant [13, 20]: 80; Plant response rating, Blackgrass [14]: 40; Wheat plant response rating ([15]; postemergence): 0; Plant response rating, Wheat [15, 20]: 20; Ryegrass, Italian plant response rating ([16]; postemergence): 30; Plant response rating, Ryegrass, Italian [16, 20]: 30; Barnyardgrass plant response rating [17]: 60; Plant response rating, Barnyardgrass [17]: 70; Kochia plant response rating (Kochia (Kochia scoparia) [18]; postemergence): 0; Plant response rating, Kochia (Kochia (Kochia scoparia) [18]; [20]): 30
CN1CC(c2ccccc2)C(C(=S)Nc2ccccc2F)C1=O (stereo not drawn) [Compound 471]	0	0	70	0	0	0	90	90	0	70	90	0	0	0	0	0	0	0	50	0	Plant response rating, Ragweed [4, 21]: 0; Plant response rating, Pigweed [5, 21]: 0; Plant response rating, Ryegrass, Italian [7, 21]: 0; Plant response rating, Galium [10, 22]: 0; Plant response rating, Ragweed [11, 22]: 0; Plant response rating, Pigweed [12, 22]: 0; Plant response rating, Foxtail, Giant [13, 22]: 70; Plant response rating, Blackgrass [14]: 0; Wheat plant response rating ([15]; postemergence): 0; Plant response rating, Wheat [15, 22]: 0; Ryegrass, Italian plant response rating ([16]; postemergence): 0; Plant response rating, Ryegrass, Italian [16, 22]: 0; Barnyardgrass plant response rating [17]: 50; Plant response rating, Barnyardgrass [17]: 70; Kochia plant response rating (Kochia (Kochia scoparia) [18]; postemergence): 0; Plant response rating, Kochia (Kochia (Kochia scoparia) [18]; [22]): 0
